This note sets out measurements from patent publication EP0542355A1, “Amorphous (Quinolin-2-ylmethoxy)indoles as leukotriene antagonists” (MERCK FROSST CANADA INC., priority 1991, dated 1993).

Several values for one entry are separate records, joined by “and”; a condition that tells them apart may be missing. Equal values may be shown once. Where a name gives a salt, the structure may show the parent alone. Read-outs that look alike come from different tables or passages of the source. Some results are limits rather than exact numbers.

One series in a line: Aqueous solubility. Format: physicochemical. As to the method:
Solubility was measured by stirring […] in water (10 mL) of amorphous L-708 at room temperature. At 48 hrs. 1 mL of the suspension was drawn and centrifuged. The supernatant was diluted and content of amorphous L-708 was measured by both U.V. spectrophotometry and by HPLC. This gave a concentration of 55 mg/mL.

A short description of another series: Bioavailability. Format: in vivo.
Series [1] in a line: Stability to chemical decomposition. Format: physicochemical. Conditions: in the solid form and in aqueous solution. The method, then:
(§1) No change in water solubility has been observed even when stored for three months at 30°C and 60°C at ambient humidity and at 30°C/79% relative humidity.

Series [2] in a line: Stability of the solid on storage, followed by water solubility. Format: physicochemical. Conditions: solid stored three months at 30°C and 60°C at ambient humidity and at 30°C/79% relative humidity. As to the method:
as §1

Series [3] can be described thus: Stability of saturated aqueous solutions against precipitation of the crystalline form. Type of series: physicochemical. Conditions: do not readily precipitate the crystalline form even when seeded with the crystalline allotrope.

As to `CC(C)(C)Sc1c(CC(C)(C)C(=O)O)n(Cc2ccc(Cl)cc2)c2ccc(OCc3ccc4ccccc4n3)cc12` [L-708 Na⁺ salt, Crystalline 3-[N-(p-chlorobenzyl)-3-(t-butylthio)-5-(quinolin-2-ylmethoxy)indol-2-yl]-2.2-dimethylpropanoic acid, sodium salt, reference compound], the solubility in the series “Aqueous solubility” (water, crystalline sodium salt, read-out: aqueous solubility) is 0.005 to 0.03 mg/mL. Besides, the oral bioavailability entry in “Bioavailability” (oral) is given as “low oral bioavailability”.
Consider `CC(C)(C)Sc1c(CC(C)(C)C(=O)O)n(Cc2ccc(Cl)cc2)c2ccc(OCc3ccc4ccccc4n3)cc12` [amorphous L-708, Amorphous 3-[N-(p-chlorobenzyl)-3-(t-butylthio)-5-(quinolin-2-ylmethoxy)indol-2-yl]-2,2-dimethylpropanoic acid, sodium salt], for which the solubility in the series “Aqueous solubility” (de-ionized water, in de-ionized water at 25°C, read-out: solubility) was 55 mg/mL; in “Aqueous solubility” (water, not tested higher, read-out: Solubility in water), ≥ 3000 µg/mL and ≥ 5000 µM. For the same compound, in the series “Aqueous solubility” (water, 100 mg/mL stirred in water (10 mL) at room temperature, 48 hrs, U.V. spectrophotometry and HPLC, read-out: Solubility (concentration in supernatant)), the solubility at 48 h came to 55 mg/mL. Besides, the “stability to chemical decomposition” value in series [1] is reported as “highly stable to chemical decomposition”. In addition, the “change in water solubility on storage” value in series [2] is recorded as “No change”. In addition, the bioavailability entry in the series “Bioavailability” (compared with L-708 Na⁺ salt) is listed as “much more bioavailable than L-708 Na⁺ salt”. The “stability of saturated aqueous solutions” value in series [3] is listed as “highly stable”.
